Measurements published in publication PMC12100716 (2025).

Key:
Experiment in all cases: PELDOR (EPR) distance distributions
[1] = tested on: C12C30 (RNA, aptamer, Çm (rigid nitroxide spin-label cytidine analogue) at 12 and 30) GGACGACUGAACCGAAAGGUUCUUGGCUGCUUCGGCAGAGGUACGUCC; details: 130 mM glutamate buffer, pH 7.5; frozen solution; qualitative
[2] = tested on: C12C47 (RNA, aptamer, Çm (rigid nitroxide spin-label cytidine analogue) at 12 and 47) GGACGACUGAACCGAAAGGUUCUUGGCUGCUUCGGCAGAGGUACGUCC; details: 130 mM glutamate buffer, pH 7.5; frozen solution; qualitative
[3] = tested on: C30C47 (RNA, aptamer, Çm (rigid nitroxide spin-label cytidine analogue) at 30 and 47) GGACGACUGAACCGAAAGGUUCUUGGCUGCUUCGGCAGAGGUACGUCC; details: 130 mM glutamate buffer, pH 7.5; frozen solution; qualitative; small fraction of free aptamer remains

Measured: binding

CN(C)c1ccc2c(-c3ccc(C(=O)O)cc3C(=O)[O-])c3ccc(=[N+](C)C)cc-3oc2c1
yes: all assays above
